Data as given in article PMC12469503, “Exploring the Antimicrobial and Antiviral Properties of Cryptic Peptides from Human Fibrinogen” (International Journal of Molecular Sciences, 2025).
pIC50: −log10 of the molar value. In brackets after ≈: the same amount, converted by molar mass. Where two headings read alike, the source gives them in different places. Ends that are not written are not given here.

Columns and labels:
[1] = system: Staphylococcus aureus ATCC 6538P; experiment: microbe, parasite or virus in culture; details: ATCC6538P
[2] = system: Staphylococcus aureus ATCC 6538P; details: for MBC/MIC: Table 2, Staphylococcus aureus ATCC 6538P; for MBC: ATCC 6538
[3] = system: Staphylococcus aureus ATCC 6538P; experiment: microbe, parasite or virus in culture; details: ATCC6538P; remark: listed apart in the source
[4] = system: Staphylococcus aureus ATCC 6538P; details: for MIC S. aur.: ATCC 6538
[5] = system: Enterococcus faecalis ATCC 29212
[6] = system: Salmonella typhimurium ATCC 14028; experiment: MIC, broth microdilution; format: cell-based; details: Table 1; broth microdilution, Nutrient Broth 0.5×, overnight 37 °C; minimum of three independent experiments
Description: MIC values were determined on Gram-positive and Gram-negative bacteria by the broth microdilution method for antimicrobial peptides previously described [33, 89] with minor modifications.
Bacterial strains were grown in Luria-Bertani (LB) medium overnight at 37 °C and then diluted in Nutrient Broth at a final concentration of ~5 × 10^5 CFU/mL per well. Twofold serial dilutions of peptides were carried out in the test wells to obtain concentrations ranging from 50 μM to 0.05 μM. Plates were incubated overnight at 37 °C.
MIC value was defined as the lowest concentration at which growth was inhibited. Three independent experiments were performed for each MIC value.

[7] = system: Klebsiella pneumonia ATCC 700603; details: ATCC 700603
[8] = system: Salmonella enteriditis 706 RIVM
P. aeruginosa PAO1 = details: PAO1, 16 h
Description: Plates were incubated 16 h at 37 °C. FIC index was calculated as follows: FICA + FICB, where FICA = MIC of drug A in combination/MIC of drug A alone, and FICB = MIC of drug B in combination/MIC of drug B alone.

[9] = system: Acinetobacter baumanii ATCC 17878
[10] = system: Pseudomonas aeruginosa PAO1; details: PAO1
[11] = system: Escherichia coli ATCC 25922
[12] = system: Pseudomonas aeruginosa PA14
[13] = system: Pseudomonas aeruginosa RP73 (clinical isolate)
[14] = format: physicochemical
Description: The six peptides were produced in the recombinant form by using a previously described strategy that exploit the frog protein onconase (ONC) as a carrier to drive the peptide to inclusion bodies. The fusion proteins were expressed in Escherichia coli strain BL21DE3, using the pET22b(+) vector and named: ONC-DCless-H6-(P)FIBα-GVV27, ONC-DCless-H6-(P)FIBα-SFR22, ONC-DCless-H6-(P)FIBβ-GVV28, ONC-DCless-H6-(P)FIBβ-NWK23, ONC-DCless-H6-(P)FIBγ-GII30, ONC-DCless-H6-(P)FIBγ-TWK25 (nucleotide and amino acid sequences are reported in Supplementary Figure S1). […] Peptides were released by hydrolysis of an acidic labile “Asp-Pro” sequence leading to recombinant peptides endowed with an additional Pro residue at the N-terminus. Thus, the recombinant forms of these peptides are herein named (P)FIBα-GVV27, (P)FIBα-SFR22, (P)FIBβ-GVV28, (P)FIBβ-NWK23, (P)FIBγ-GII30, (P)FIBγ-TWK25. Hydrolysis efficiencies of 95% were estimated for all the recombinant proteins (Supplementary Figure S3). To purify the recombinant peptides from the hydrolysis mixtures, the carrier and the uncleaved fusion protein were selectively precipitated by increasing the pH to 7 exploiting the fact that ONC is insoluble at pH higher than 5, whereas most AMPs are soluble also at neutral pH. […] Therefore, purification of (P)FIBα-SFR22, (P)FIBα-GVV27, (P)FIBβ-NWK23 and (P)FIBγ-TWK25 was first performed by selective precipitation, to remove the carrier and the uncleaved fusion protein, followed by Reverse Phase High-Performance Liquid Chromatography (RP-HPLC) on a C18 column, whereas purification of (P)FIBβ-GVV28 and (P)FIBγ-GII30 was performed directly by RP-HPLC omitting the selective precipitation step. Final yields of all recombinant peptides ranged from approximately 6 to 12 mg per liter of LB culture. Peptide purity, as determined by RP-HPLC, typically varied between 95% and 99% (Supplementary Figure S4).
Peptides (P)FIBα-GVV27, (P)FIBα-SFR22, (P)FIBβ-NWK23 and (P)FIBγ-TWK25 were separated from the carrier and the uncleaved fusion proteins as previously described. The hydrolysis mixture was neutralized to pH 7–7.2 by adding 1 M NH3 and incubated for 1 h at 25 °C under nitrogen atmosphere in a water bath. […] Supernatant and insoluble fraction were analyzed by SDS-PAGE. Concentration of the peptide into the soluble fraction was determined by spectrophotometric analyses using extinction coefficients (Supplementary Table S1) calculated by the ProtParam tool. After the selective precipitation step, purification of the peptide was performed by RP-HPLC. The linear gradients used are listed in Supplementary Table S2. Purification of (P)FIBβ-GVV28 and (P)FIBγ-GII30 was performed directly by RP-HPLC, omitting the selective precipitation step. Purified peptides were lyophilized and dissolved in deionized water. Samples were stored at −80 °C under nitrogen atmosphere. Purity of peptides was evaluated by RP-HPLC on Europa Protein 300 C18 column (5 μm, 25 × 1) using the linear gradients listed in Supplementary Table S2. The identity of the peptides was confirmed by mass spectrometry.

[15] = system: P. aeruginosa PAO1 biofilm; experiment: Antibiofilm detachment assay, confocal microscopy; details: peptide 20 µM on 24 h pre-formed biofilm, further 24 h, Live/Dead BacLight, three independent experiments
[16] = system: P. aeruginosa PAO1 biofilm; experiment: Antibiofilm attachment assay, confocal microscopy; details: peptide 20 µM added with bacteria, stained after 4 h, Live/Dead BacLight, three independent experiments, t-test vs control
HCoV-229E = details: Vero cells; for antiviral activity against HCoV-229E: co-treatment assay, from 50 μM peptide
HSV-1 = details: Vero cells
[17] = system: Pseudomonas aeruginosa PAO1; details: for MBC: PAO1; for MBC/MIC: Table 2, Pseudomonas aeruginosa PAO1
Sheep Red Blood Cells [18] = system: Sheep Red Blood Cells
Description: (§1) To assess the safety profile of the FIB-derived peptides, their hemolytic activity was evaluated by measuring the release of hemoglobin from sheep red blood cells after 1-h incubation with increasing peptide concentrations.
(§2) Briefly, Sheep Red Blood Cells were diluted in PBS 1× to reach a final concentration of 2%. Aliquots of diluted erythrocytes (100 μL) were added to each peptide solution (0–100 μM; 100 μL) in 96-well microtiter plates, and the mixture was incubated for 30 min under shaking (3000 rpm) at 37 °C. Following the incubation, a 3 min centrifugation at 4 °C was performed, and 50 µL of the supernatant from each sample were transferred to a 96 well plate. […] Hemolysis percentage was calculated by comparing samples to controls containing PBS (negative control) and 1% SDS (v/v) in PBS solution (positive control, inducing complete lysis). Hemolysis%=(Abs405 nm peptide−Abs405 nm negative control)/(Abs405 nm positive control−Abs405 nm negative control)×100.

Sheep Red Blood Cells [19] = experiment: Hemolysis assay; details: read-out: IC50 (concentration required to induce 50% hemolysis), peptide 0.78–100 µM, 37 °C, absorbance 405 nm, 1% SDS positive control, triplicate
Description: as §1, §2

[20] = Table 1, control antibiotic, twofold dilutions from 64 µg/mL
[21] = Table 1, broth microdilution, Nutrient Broth 0.5×, overnight 37 °C, minimum of three independent experiments
[22] = Table 1, broth microdilution, Nutrient Broth 0.5×, ~5 × 10^5 CFU/mL, overnight 37 °C, minimum of three independent experiments
[23] = peptide 1 h before infection or 1 h after infection

Compound	MBC/MIC [2]	MIC S. typ. [6]	MIC K. pne. [7]	MIC S. ent. [8]	MIC S. aur. [4]	MIC A. bau. [9, 21]	MIC PAO1 [10]	MIC E. coli [11, 22]	MIC E. fae. [5, 21]	MIC PA14 [12, 21]	MIC RP73 ([13]; RP73 (clinical isolate))	MBC [2]	solubility / aggregation at pH 7 [14]	MIC S. ent. [8, 21]	SYTO 9 / PI signal, detachment assay [15]	MIC A. bau. ([9]; ATCC 17878)	fluorescence signal of SYTO 9 (live cells), attachment assay [16]	MIC E. coli ([11]; ATCC 25922)	MBC [17]	MBC/MIC [17]	further results
CN[C@H](CC(C)C)C(=O)N[C@H]1C(=O)N[C@@H](CC(N)=O)C(=O)N[C@H]2C(=O)N[C@H]3C(=O)N[C@H](C(=O)N[C@H](C(=O)O)c4cc(O)cc(O)c4-c4cc3ccc4O)[C@H](O)c3ccc(c(Cl)c3)Oc3cc2cc(c3O[C@@H]2O[C@H](CO)[C@@H](O)[C@H](O)[C@H]2O[C@H]2C[C@](C)(N)[C@H](O)[C@H](C)O2)Oc2ccc(cc2Cl)[C@H]1O [Vancomycin, reference compound]	1																				MIC [1]: 0.5 µg/mL (≈ 0.345 µM); MBC [3]: 0.5 µg/mL (≈ 0.345 µM); MIC S. aur. (antibiotics) [4, 20]: 0.5 µg/mL (≈ 0.345 µM); MIC E. fae. (antibiotics) [5, 20]: 2 µg/mL (≈ 1.38 µM)
GIIWATWKTRWYSMKKTTMKIIPFNRLTIG [FIBγ-GII30]		6.25 µM	12.5 µM	12.5 µM	6.25 µM	6.25 µM	6.25 µM	6.25 µM	6.25 µM	6.25 µM	3.12 µM										FICI of peptide/tobramycin combinations (P. aeruginosa PAO1): 0.5–0.53
H-PGVVWMNWKGSWYSMRKMSMKIRPFFPQQ [(P)FIBβ-GVV28]	1	12.5 µM	25 µM		3.12 µM		6.25 µM				6.25 µM	3.12 µM	particularly prone to aggregation and precipitation	12.5 µM	significantly reducing the SYTO 9 signal	6.25 µM	significantly reduced	6.25 µM	6.25 µM	1	antiviral activity against HCoV-229E in cell pre-treatment and post-infection treatment (HCoV-229E; [23]): appreciable antiviral activity; antiviral activity against HCoV-229E (HCoV-229E): strong antiviral activity; antiviral activity against HSV-1 in cell pre-treatment and post-infection treatment (HSV-1; [23]): appreciable antiviral activity; MIC E. fae. ([5]; ATCC 29212): 6.25 µM; MIC PA14 ([12]; PA14): 6.25 µM
H-PSFRGADYSLRAVRMKIRPLVTQ [(P)FIBα-SFR22]	1	25 µM	>50 µM	>50 µM	12.5 µM		12.5 µM				6.25 µM	12.5 µM	soluble at pH 7			25 µM	did not cause any reduction	25 µM	12.5 µM	1	release of hemoglobin at 100 µM (Sheep Red Blood Cells [18]): limited release of hemoglobin; antiviral activity against HSV-1 (HSV-1; co-treatment assay, from 50 μM peptide): no significant effect; MIC E. fae. ([5]; ATCC 29212): 6.25 µM; MIC PA14 ([12]; PA14): 12.5 µM; pIC50 (Sheep Red Blood Cells [19]): < 4.00
H-PTWKTRWYSMKKTTMKIIPFNRLTIG [(P)FIBγ-TWK25]	1	3.12 µM	6.25 µM		1.56 µM	3.12 µM	3.12 µM	3.12 µM	3.12 µM	3.12 µM		1.56 µM	soluble at pH 7	3.12 µM	significantly reducing the SYTO 9 signal		significantly reduced		3.12 µM	1	release of hemoglobin at 100 µM (Sheep Red Blood Cells [18]): limited release of hemoglobin; antiviral activity against HCoV-229E (HCoV-229E): absence of efficacy; MIC RP73 [13, 21]: 3.12 µM; pIC50 (Sheep Red Blood Cells [19]): ~4.00
